One series deals with CF-1 mice. In words: Anticonvulsant test in mice: metrazol (pentylenetetrazol) tail vein infusion, time to twitch and seizure. It is filed as in vivo, mouse. The protocol:
CF-1 mice were used in this study. Number 20 PE tubing to cannulate a mouse tail vein was used. An infusion pump was used to deliver a solution at a rate of 0.34 mL/min. A hemostat was used to prevent backflow in the PE tubing before the experiment stated. To begin the experiment, the hemostat that was clamped to the PE 20 tubing was removed, the infusion of the solution was started into the tail IV of the mouse, and the timer was started.
The study reflects the time in seconds from the start of the infusion to the time of twitch and onset of seizure, or 90 seconds, whichever is sooner. When the seizure occurs, the infusion is turned off.
As a control, metrazol (pentylenetetrazol) in a 0.5% solution (5 mg/mL) in water was prepared. Pentylenetetrazol is used as a control to study seizure phenomena in and to identify compounds that may control seizure susceptibility. Solutions of 8 M butyric acid and 1.5 M 3-hydroxybutyric acid were made.
The time to twitch and time to seizure of the mouse in seconds is recorded in Tables 3-5, below.

For another series, the system named is mouse. As for the experimental part: Butyric acid was dissolved in water to form an 8 M solution. 0.5 mL of the 8 M solution of butyric acid was injected subcutaneously (at the back of the neck) into the mouse.
3-hydroxybutyric acid was dissolved in water to form 1 M, 1.5 M, and 2 M solutions. 0.2 mL of a 1.5 M solution of 3-hydroxybutyric acid was injected into a tail vein of a CD-1 mouse. […] This was repeated for at least 2 more times on subsequent days.
Ethylmalonic acid was dissolved in water to form 2 M, 3 M, and 4 M solutions. 0.2 mL of a 3 M solution of ethylmalonic acid was injected into a tail vein of a mouse. […] This was repeated for at least 2 more times on subsequent days.
Ethylmalonic acid was dissolved in water to form a 4 M solution. 0.5 mL of the 4 M solution of ethylmalonic acid was injected subcutaneously into the mouse.

In another series the test system is Tadpoles. In words: Tadpole anesthesia test (movement suppressed on contact with rod). The format is in vivo. The following applies: read-out: Movement suppressed (%). As for the experimental part: Tadpoles were placed in a petri dish containing aquarium water. Four to eight tadpoles were placed in each petri dish. The aquarium water contained the specified test compound at the listed concentration. When the tadpoles stopped moving, a plastic rod was used to elicit motion once again by contact between the rod and tadpole. […] From this and the number of subjects, the percent of tadpoles in which movement was suppressed were calculated.
After 1 to 30 minutes, they were again contacted with a rod to ensure the anesthetic effect had worn off.
In some examples, subanesthetic concentrations of ethanol were added into the aquarium water. Tadpoles in which movement was prevented with exposure to a test compound and ethanol but not with exposure to a test compound alone were classified as partial anesthetics.

Setting [1] is: average of 8 mice, 1.5 M 3-hydroxybutyric acid solution plus metrazol.
Where [2] appears, read: individual mice, 1.5 M 3-hydroxybutyric acid solution plus metrazol.
[3] abbreviates: average of 13 mice, 8 M butyric acid solution plus metrazol.
Where [4] appears, read: individual mice, 8 M butyric acid solution plus metrazol.
Where [5] appears, read: 0.5 mL of 8 M solution in water, subcutaneous (back of the neck).
[6] abbreviates: average of 9 mice, metrazol alone.
Setting [7] is: individual mice, metrazol 0.5% solution infused 0.34 mL/min tail vein.

Values joined by “and” are separate entries in the source; they are usually repeats but may differ in a detail not shown here. Identical values can stand only once. Like-named read-outs stand apart in the source and are kept apart here.

For the compound `CC(O)CC(=O)O` (centres unmarked) [3-hydroxybutyric acid], in the series on CF-1 mice (setting [1]), the “3-Hydroxybutyric Acid and Metrazol Time to Seizures (seconds), Avg.” value stood at 56.9 s; the “3-Hydroxybutyric Acid and Metrazol Time to Twitch (seconds), Avg.” value was 47.5 s. Moreover, in the series with CF-1 mice (setting [2]), the “3-Hydroxybutyric Acid and Metrazol Time to Seizures” value was 61 seconds and 74 seconds and 53 seconds (3×) and 48 seconds (2×) and 65 seconds; the “3-Hydroxybutyric Acid and Metrazol Time to Twitch” value is 56 s and 54 s and 49 s and 47 s and 38 s and 50 s and 45 s and 41 s. The “Anesthetic effect on the mouse” value in the series on mouse (0.2 mL of 1.5 M solution in water, tail vein, CD-1 mouse) is “became unconscious or anesthetic”. Further, in the series with mouse (1 M solution in water, tail vein, CD-1 mouse), the “Anesthetic effect on the mouse” value is given as “did not have any observable effect”. Further, the “Lethality to the mouse” value with mouse (2 M solution in water, tail vein, CD-1 mouse) was “lethal”.

With `CCCC(=O)O` [Butyric acid], in the series on Tadpoles, the responders at 62500 µM was determined as 100%, the responders at 125000 µM came to 100%, the responders at 250000 µM came to 100% and the responders at 500000 µM amounted to 100%. In the series with CF-1 mice (setting [3]), the “Butyric Acid and Metrazol Time to Seizures (seconds), Avg.” value turned out to be 51.2 s; the “Butyric Acid and Metrazol Time to Twitch (seconds), Avg.” value worked out at 41.4 s. Further, in the series with CF-1 mice (setting [4]), the “Butyric Acid and Metrazol Time to Seizures” value was 51 seconds and 50 seconds (2×) and 47 seconds and 57 seconds (3×) and 42 seconds and 66 seconds and 41 seconds and 44 seconds and 38 seconds and 65 seconds; the “Butyric Acid and Metrazol Time to Twitch” value was 38 seconds and 42 seconds and 44 seconds and 50 seconds and 34 seconds (2×) and 53 seconds (2×) and 48 seconds and 36 seconds (2×) and 35 seconds (2×). In the series on mouse (0.2 mL of 8 M solution in water, intravenous, tail vein), the “Lethality to the mouse” value is “lethal”. Also, in the series on mouse (setting [5]), the “Anesthetic effect on the mouse” value is “became anesthetized or lost consciousness”, the “Time until mouse became anesthetized or lost consciousness” value fell in the range of 10 to 15 min and the “Time until mouse woke up” value is recorded as “several hours”.

As to `C1CCc2nnnn2CC1` [Metrazol, pentylenetetrazol, reference compound], in the series on CF-1 mice (setting [6]), the “Metrazol alone Time to Seizures (seconds), Avg.” value was found to be 45.7 s and the “Metrazol alone Time to Twitch (seconds), Avg.” value is 37.3 s. Further, in the series with CF-1 mice (setting [7]), the “Metrazol alone Time to Seizures” value was 43 seconds (2×) and 42 seconds (2×) and 59 seconds and 45 seconds and 39 seconds and 49 seconds (2×); the “Metrazol alone Time to Twitch” value was 33 seconds and 36 seconds (2×) and 37 seconds and 52 seconds and 34 seconds (2×) and 31 seconds and 43 seconds.

Values taken from patent US20200375958A1, “MEMBRANE ACTIVE MOLECULES” (priority 2017, published 2020).
